Measured values as given in patent US4120864A, “1,2,4-4H-triazole derivatives” (Rohm and Haas Company, priority 1972, dated 1978).
Where a name gives a salt, the structure may show the parent alone. Read-outs that look alike come from different tables or passages of the source.

Tests used:
[1] = system: Botrytis cinerea; settings: in vivo
[2] = system: Phytophthora infestans; type: in vivo; settings: foliar application at 1200 ppm or root uptake from treated soil containing 20 ppm
[3] = system: wheat leaf rust, Puccinia recondita; assay: whole plant or invertebrate; type: in vivo; settings: foliar; for pest or weed control at 280.212 g/ha: read-out: % Control (without rain), foliar, 0.25 lb.; for pest or weed control at 1120.85 g/ha: read-out: % Control (without rain), foliar, 1 lb.
[4] = system: wheat leaf rust, Puccinia recondita; assay: whole plant or invertebrate; type: in vivo; settings: foliar; for pest or weed control at 280.212 g/ha: read-out: % Control (with 1" of rain), foliar, 0.25 lb., 1" of rain; for pest or weed control at 1120.85 g/ha: read-out: % Control (with 1" of rain), foliar, 1 lb., 1" of rain
[5] = system: rice blast, Piricularia oryzae; type: in vivo; settings: foliar application, 1200 ppm
[6] = system: leaf rust on winter wheat; assay: Systemic field test, leaf rust on winter wheat; type: in vivo; settings: 46 days after application, untreated 1109
[7] = system: wheat leaf rust, Puccinia recondita; assay: Foliar systemic activity on leaf rust; type: in vivo
Source text: Another type of systemic test was run in which pots of approximately 5 inch high wheat plants were sprayed with varying concentrations of the test compound. Thirty-six hours later they were sprayed six minutes in a rain machine which amounted to about one inch of normal rainfall. The plants were then placed in a greenhouse for 7 days and then inoculated with a spore suspension of wheat leaf rust, Puccinia recondita. About 7 days later lesion counts were made on ten leaves representing the sprayed leaves and new growth from each replicate and compared with similar pots of wheat plants which were untreated with a chemical and the percent disease control determined. Disease control on the new growth is a measure of systemic activity. The commercial product known by the trademarked name Plantvax, which is 2,3-dihydro-5-carboxanilido-6-methyl-1,4-oxathiin-4,4-dioxide, was used as a standard.

[8] = system: leaf rust on spring wheat; assay: Systemic field test, leaf rust on spring wheat; type: in vivo; settings: 36 days after treatment
[9] = system: wheat leaf rust, Puccinia recondita; type: in vivo

Compound | pest or weed control at 280.212 g/ha [3] [%] | pest or weed control at 1120.85 g/ha [3] [%] | pest or weed control at 280.212 g/ha [4] [%] | pest or weed control at 1120.85 g/ha [4] [%] | % Rust Control, New growth ([7]; 1/2 lb./100 gal.) [%] | % Rust Control, Sprayed Leaf ([7]; 1/2 lb./100 gal.) [%] | % Rust Control, New growth ([7]; 1/6 lb./100 gal.) [%] | % Rust Control, Sprayed Leaf ([7]; 1/6 lb./100 gal.) [%] | % Rust Control, New growth ([7]; 1/12 lb./100 gal.) [%] | % Rust Control, Sprayed Leaf ([7]; 1/12 lb./100 gal.) [%] | % Systemic Wheat Leaf Rust Control ([9]; 2.5 ppm in soil) [%] | % Systemic Wheat Leaf Rust Control ([9]; 5 ppm in soil) [%] | % Systemic Wheat Leaf Rust Control ([9]; 10 ppm in soil) [%] | also measured
4-(2-ethylhexyl)-1,2,4-triazole [Example 11] | – | – | – | – | – | – | – | – | – | – | – | – | – | control of Botrytis cinerea on broad bean [1]: 50-85%
CCCCCCCCn1cnnc1 [Example 10, 4-n-octyl-1,2,4-triazole] | – | – | – | – | – | – | – | – | – | – | – | – | – | control of Phytophthora infestans [2]: good control
CCCCCCCCCCCCn1cnnc1 [Example 13, 4-n-dodecyl-1,2,4-triazole] | 20 | 60 | 0 | 30 | – | – | – | – | – | – | – | – | – | control of rice blast, Piricularia oryzae [5]: 95-100%
OCCCn1cnnc1 [Example 18, 4-(3-hydroxypropyl)-1,2,4-triazole] | 0 | 0 | 0 | 0 | – | – | – | – | – | – | – | – | – | control of Phytophthora infestans [2]: good control
CCOCCn1cnnc1 [Example 24, 4-(2-ethoxyethyl)-1,2,4-triazole] | 80 | 95 | 50 | 95 | – | – | – | – | – | – | – | – | – | control of Phytophthora infestans [2]: good control
c1ccc(OCCn2cnnc2)cc1 [Example 25, 4-(2-phenoxyethyl)-1,2,4-triazole] | 0 | 0 | 0 | 0 | – | – | – | – | – | – | – | – | – | control of Phytophthora infestans [2]: good control
CCOCCCn1cnnc1 [Example 47] | 80 | 80 | 30 | 55 | – | – | – | – | – | – | – | – | – | control of Phytophthora infestans [2]: good control
CCCCn1cnnc1S [Example 76, 3-mercapto-4-n-butyl-1,2,4-triazole] | 100 | 100 | 100 | 100 | 90 | 97 | 77 | 88 | 75 | 80 | 83 | 97 | 100 | No. of lesions/800 leaves ([6]; 0.5 lbs./acre): 453 lesions/800 leaves; No. of lesions/800 leaves ([6]; 1 lbs./acre): 239 lesions/800 leaves; No. of lesions/800 leaves ([6]; 2 lbs./acre): 89 lesions/800 leaves; % Leaves infected ([8]; 0.5 lbs./acre): 23%; % Leaves infected ([8]; 1 lbs./acre): 10%; % Leaves infected ([8]; 2 lbs./acre): 4%
CCCCn1c(S)nnc1C(=O)O [Example 94, 3-mercapto-4-n-butyl-5-carboxy-1,2,4-triazole] | 100 | 100 | 82 | 83 | 86 | 99 | 73 | 91 | 61 | 71 | 95 | 99 | 100 | % Leaves infected ([8]; 0.5 lbs./acre): 35%; % Leaves infected ([8]; 1 lbs./acre): 17%; % Leaves infected ([8]; 2 lbs./acre): 7%
CCCCn1c(S)nnc1C(=O)OCC [Example 97] | 100 | 100 | 100 | 100 | 54 | 86 | 75 | 73 | 67 | 81 | 93 | 95 | 100 | –
CCCCn1c(SC(=O)NC)nnc1C(=O)O [Example 99, 3-methylcarbamoylmercapto-4-n-butyl 5-carboxy-1,2,4-triazole] | 99 | 99 | 100 | 100 | 82 | 69 | 69 | 74 | 56 | 81 | 96 | 99 | 100 | –
CCCCn1c(SC(=O)NC)nnc1C(=O)O [Example 100, triethanolamine salt of 3 methyl-carbamoylmercapto-4-n-butyl-5-carboxy-1,2,4-triazole] | – | – | – | – | 79 | 79 | 63 | 79 | 54 | 57 | 89 | 99 | 99 | % Control (without rain) ([3]; 0.25 lb.): 100%; % Control (without rain) ([3]; 1 lb.): 100%; % Control (with 1" of rain) ([4]; 0.25 lb.): 100%; % Control (with 1" of rain) ([4]; 1 lb.): 100%
CCCCn1cnnc1SCCOCC [Example 107, 3-(2-ethoxyethylmercapto)-4-n-butyl-1,2,4-triazole] | 100 | 100 | 100 | 100 | 61 | 73 | 23 | 27 | 17 | 25 | 52 | 85 | 89 | –
CCCCn1cnnc1SCC(N)=O [Example 111, 3-carbamoylmethylmercapto-4-n butyl-1,2,4-triazole] | 100 | 100 | 93 | 100 | 88 | 88 | 59 | 51 | 38 | 49 | 76 | 91 | 92 | –
CCCCn1cnnc1SC(=O)NC [Example 114, 3-methylcarbamoylmercapto-4-n-butyl-1,2,4-triazole] | 100 | 100 | 100 | 100 | 98 | 96 | 79 | 83 | 67 | 68 | 96 | 100 | 100 | –
CCCCn1cnnc1Sc1ccc([N+](=O)[O-])cc1[N+](=O)[O-] [Example 127, 3-(2,4-dinitrophenylmercapto)-4-n-butyl-1,2,4-triazole] | 100 | 100 | – | 100 | 81 | 98 | 69 | 93 | 57 | 81 | 67 | 94 | 100 | –
CC1=C(C(=O)Nc2ccccc2)S(=O)(=O)CCO1 [Plantvax, 2,3-dihydro-5-carboxanilido-6-methyl-1,4-oxathiin-4,4-dioxide, reference compound] | – | – | – | – | 38 | 49 | 32 | 37 | – | 3 | – | – | – | No. of lesions/800 leaves ([6]; 0.5 lbs./acre): 1113 lesions/800 leaves; No. of lesions/800 leaves ([6]; 1 lbs./acre): 1017 lesions/800 leaves; No. of lesions/800 leaves ([6]; 2 lbs./acre): 690 lesions/800 leaves; % Leaves infected ([8]; 0.5 lbs./acre): 79%; % Leaves infected ([8]; 1 lbs./acre): 78%; % Leaves infected ([8]; 2 lbs./acre): 75%
